target: T1, thrombin (Bos taurus, UniProt P00735); assay: fibrinogen coagulation time (prolongation by a factor of two); assay type: biochemical; details: pH 7.4, TABLE 2 (Sample Nos. 1-14, own numbering); bovine fibrinogen, thrombin 5 units/ml, pH 7.4, 25° C; read-out: Concentration required to prolong the coagulation time by a factor of two
T1 construct: clotting of bovine fibrinogen
Procedure: The measurement of the fibrinogen coagulation time was conducted as follows:
Immediately after mixing, the reaction mixture was transferred from the ice bath to a bath maintained at 25° C. Coagulation times were taken as the period between the time of transference to the 25° C bath and the time of the first appearance of fibrin threads. […] The term "concentration required to prolong the coagulation time by a factor of two" is the concentration of an active ingredient required to prolong the normal coagulation time 50-55 seconds to 100-110 seconds.

Row | IC (2-fold clotting time) | SMILES
1 | 5 µM | CCCCN(CC(=O)O)C(=O)[C@H](CCCNC(=N)N)NS(=O)(=O)c1ccc(OC)c(C2CCCCC2)c1 [compound 3, N^2-(3-cyclohexyl-4-methoxyphenylsulfonyl)-L-arginyl-N-butylglycine]
2 | 38 µM | CCCCN(CC(=O)O)C(=O)[C@H](CCCNC(=N)N)NS(=O)(=O)c1ccc(OC)c(Cc2ccccc2)c1 [compound 2]

same assay, conditions: pH 7.4, first table (Sample Nos. 1-235); bovine fibrinogen, thrombin 5 units/ml, pH 7.4, 25° C; read-out: Concentration required to prolong the coagulation time by a factor of two

Row | SMILES | IC (2-fold clotting time)
3 | Cc1ccc2ccc(S(=O)(=O)N[C@@H](CCCNC(=N)N)C(=O)N3CCC(C(C)C)CC3C(=O)O)cc2c1 (stereo partly drawn) [compound 175] | 0.1 µM
4 | COc1ccc2ccc(S(=O)(=O)N[C@@H](CCCNC(=N)N)C(=O)N3CCOCC3C(=O)O)cc2c1 (stereo partly drawn) [compound 189] | 2 µM

More lines, now with the values ahead:

Row | IC (2-fold clotting time) | SMILES
5 | 2.5 µM | COCCN(CCC(=O)O)C(=O)[C@H](CCCNC(=N)N)NS(=O)(=O)c1ccc2cc(OC)c(OC)cc2c1 [compound 15]
6 | 2.5 µM | COc1cc2ccc(S(=O)(=O)N[C@@H](CCCNC(=N)N)C(=O)N(CC(=O)O)Cc3ccccc3)cc2cc1OC [compound 50]

From patent US4097591A, “N^2 -arylsulfonyl-L-argininamides and the pharmaceutically acceptable salts thereof” (Mitsubishi Chemical Industries Limited, priority 1977, dated 1978)
